The record followed here is patent publication US20160031855A1, “PROTEIN KINASE INHIBITORS” (ORION CORPORATION, priority 2013, published 2016).

In this assay the target is T1, FGFR1 kinase (Homo sapiens, UniProt P11362).
T1 construct: purchased Upstate, USA
As to the kind of experiment: TR-FRET assay with FGFR1 kinase. The assay is classed as biochemical. To be noted: 13 μM ATP; for IC50: dose response, read-out: IC50 of FGFR1 inhibition; for inhibition at 1 µM: compound at 1000 nM. The method, then: 1. Inhibition of FGFR1 kinase
Compounds were screened in the TR-FRET assay with FGFR1 kinase. 5 ng of FGFR1 [Upstate, USA] kinase was used for assay. The compound was incubated with the kinase for 30 minutes at room temperature. After the incubation, substrate mix [40 nM Ultra light poly GT (Perkin Elmer, USA) and 13 μM ATP (Sigma)] was added. The above reaction was stopped by the addition of 40 mM EDTA after the 30 min kinase reaction. The Eu-labelled antiphospho-tyrosine antibody [Perkin Elmer, USA] was added at 0.5 nM and the fluorescence emission at 615 nm/665 nm [excitation at 340 nm] was measured. The compounds were initially screened at 100 nM and 1 μM concentrations. The compounds with >50% inhibition at 100 nM of FGFR1 were taken for the full dose response studies. The final DMSO concentration in the assay was 1%. For IC50 determination, ⅓^rd serial dilution was made from the 20 mM DMSO stock solution. 2 μl of these were transferred to the test wells containing […] of the reaction mixture [total reaction volume 20 μl]. The fluorescence was measured in Perkin Elmer Wallac 1420 Multilabel Counter Victor 3. The IC50 was determined by fitting the dose response data to sigmoidal curve fitting equation using GraphPad Prism software V5.
In general terms: TR-FRET usually uses a lanthanide donor and a delayed reading to cut background.

T1 sequence (P11362 22-822): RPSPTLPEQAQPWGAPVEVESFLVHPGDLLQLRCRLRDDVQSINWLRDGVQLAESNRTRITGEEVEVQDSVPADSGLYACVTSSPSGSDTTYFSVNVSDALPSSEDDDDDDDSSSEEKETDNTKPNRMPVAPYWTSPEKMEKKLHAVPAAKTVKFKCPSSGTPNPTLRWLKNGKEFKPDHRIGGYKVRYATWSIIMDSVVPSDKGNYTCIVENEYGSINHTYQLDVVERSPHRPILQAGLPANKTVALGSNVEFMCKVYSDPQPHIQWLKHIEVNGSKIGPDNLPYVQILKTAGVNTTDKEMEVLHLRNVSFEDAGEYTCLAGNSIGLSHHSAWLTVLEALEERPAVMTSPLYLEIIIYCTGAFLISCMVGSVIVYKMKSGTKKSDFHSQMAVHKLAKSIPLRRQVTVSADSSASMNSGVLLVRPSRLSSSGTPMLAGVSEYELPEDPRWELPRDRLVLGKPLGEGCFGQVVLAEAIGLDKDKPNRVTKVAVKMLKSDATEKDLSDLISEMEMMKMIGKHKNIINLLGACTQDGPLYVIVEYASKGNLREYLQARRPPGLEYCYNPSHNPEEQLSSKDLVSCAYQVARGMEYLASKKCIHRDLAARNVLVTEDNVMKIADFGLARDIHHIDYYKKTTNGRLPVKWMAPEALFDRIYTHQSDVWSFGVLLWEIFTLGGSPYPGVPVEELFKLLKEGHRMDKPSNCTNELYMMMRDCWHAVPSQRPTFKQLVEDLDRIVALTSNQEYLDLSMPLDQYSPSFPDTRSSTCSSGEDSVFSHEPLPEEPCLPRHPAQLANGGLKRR

As a reminder, the IC50 is the concentration needed to halve the response being measured. In general, inhibition refers to the drop in the measured response relative to a control, in per cent. Consider `Cn1cc(-c2ccc3c(c2)ncn3-c2cc(-c3ncc(F)cc3F)cc(NS(=O)(=O)C3CC3)n2)cn1` [Example 25, N-(3,5-difluoro-6′-(5-(1-methyl-1H-pyrazol-4-yl)-1H-benzo[d]imidazol-1-yl)-[2,4′-bipyridin]-2′-yl)cyclopropanesulfonamide], for which the IC50 turned out to be 3.1 nM and the inhibition at 1 µM is 97%.

In the case of `CC(=O)Nc1cc(-c2ncc(F)cc2F)cc(-n2cnc3cc(-c4cnn(C)c4)ccc32)n1` [Example 26, N-(3,5-difluoro-6′-(5-(1-methyl-1H-pyrazol-4-yl)-1H-benzo[d]imidazol-1-yl)-[2,4′-bipyridin]-2′-yl)acetamide], the IC50 stood at 21.9 nM and the inhibition at 1 µM came out at 94%.

Regarding `Cn1cc(-c2ccc3c(c2)ncn3-c2cc(-c3ccccc3Cl)cc(NS(=O)(=O)C3CC3)n2)cn1` [Example 28, N-(4-(2-chlorophenyl)-6-(5-(1-methyl-1H-pyrazol-4-yl)-1H-benzo[d]imidazol-1-yl)pyridin-2-yl)cyclopropanesulfonamide], the IC50 stood at 7.2 nM and the inhibition at 1 µM amounted to 97%.

As to `Cn1cc(-c2ccc3c(c2)ncn3-c2cc(-c3ncccc3Cl)cc(NS(=O)(=O)C3CC3)n2)cn1` [Example 29, N-(3-chloro-6′-(5-(1-methyl-1H-pyrazol-4-yl)-1H-benzo[d]imidazol-1-yl)-[2,4′-bipyridin]-2′-yl)cyclopropanesulfonamide], the IC50 amounted to 9.7 nM and the inhibition at 1 µM turned out to be 97%.

In the case of `Cn1cc(-c2ccc3c(c2)ncn3-c2cc(-c3ccc(F)cn3)cc(NS(=O)(=O)C3CC3)n2)cn1` [Example 30, N-(5-fluoro-6′-(5-(1-methyl-1H-pyrazol-4-yl)-1H-benzo[d]imidazol-1-yl)-[2,4′-bipyridin]-2′-yl)cyclopropanesulfonamide], the IC50 is 24 nM and the inhibition at 1 µM was found to be 96%.

As to `O=S(=O)(Nc1cc(-c2ccc(F)cc2F)cc(-n2cnc3cc(-n4ccnc4)ccc32)n1)C1CC1` [Example 32, N-(6-(5-(1H-imidazol-1-yl)-1H-benzo[d]imidazol-1-yl)-4-(2,4-difluorophenyl)-pyridin-2-yl)cyclopropanesulfonamide], the IC50 worked out at 21.7 nM and 1 µM produced 99% inhibition.

Take `O=S(=O)(Nc1cc(-c2ccc(F)cc2F)cc(-n2cnc3cc(-c4cnn(CCN5CCOCC5)c4)ccc32)n1)C1CC1` [Example 33, N-(4-(2,4-difluorophenyl)-6-(5-(1-(2-morpholinoethyl)-1H-pyrazol-4-yl)-1H-benzo[d]imidazol-1-yl)pyridin-2-yl)cyclopropanesulfonamide]: the IC50 came out at 2 nM and the inhibition at 1 µM was 99%.

Take `O=S(=O)(Nc1cc(-c2ccc(F)cc2F)cc(-n2cnc3cc(-c4cnn(C5CCNC5)c4)ccc32)n1)C1CC1` (centres unmarked) [Example 34, N-(4-(2,4-difluorophenyl)-6-(5-(1-(pyrrolidin-3-yl)-1H-pyrazol-4-yl)-1H-benzo[d]imidazol-1-yl)pyridin-2-yl)cyclopropanesulfonamide]: the IC50 stood at 1.6 nM and the inhibition at 1 µM worked out at 99%.

Turning to `CCn1cc(-c2ccc3c(c2)ncn3-c2cc(-c3ccc(F)cc3F)cc(NS(=O)(=O)C3CC3)n2)nn1` [Example 35, N-(4-(2,4-difluorophenyl)-6-(5-(1-ethyl-1H-1,2,3-triazol-4-yl)-1H-benzo[d]-imidazol-1-yl)pyridin-2-yl)cyclopropanesulfonamide], the IC50 was 2 nM and the inhibition at 1 µM was found to be 99%.

Regarding `Cn1cc(-c2ccc3c(c2)ncn3-c2cc(-c3ccc(F)cc3F)cc(NS(=O)(=O)C3CC3)n2)nn1` [Example 36, N-(4-(2,4-difluorophenyl)-6-(5-(1-methyl-1H-1,2,3-triazol-4-yl)-1H-benzo[d]-imidazol-1-yl)pyridin-2-yl)cyclopropanesulfonamide], the IC50 was 4.7 nM and 1 µM produced 99% inhibition.

On to `Cn1cnc(-c2ccc3c(c2)ncn3-c2cc(-c3ccc(F)cc3F)cc(NS(=O)(=O)C3CC3)n2)c1` [Example 37, N-(4-(2,4-difluorophenyl)-6-(5-(1-methyl-1H-imidazol-4-yl)-1H-benzo[d]-imidazol-1-yl)pyridin-2-yl)cyclopropanesulfonamide], for which the IC50 came to 1.3 nM and the inhibition at 1 µM was found to be 99%.

With `CC(=O)Nc1nc(-c2ccc(F)cc2F)cc(-n2cnc3cc(-c4cnn(C)c4)ccc32)n1` [Example 38, N-(4-(2,4-difluorophenyl)-6-(5-(1-methyl-1H-pyrazol-4-yl)-1H-benzo[d]-imidazol-1-yl)pyrimidin-2-yl)acetamide], the IC50 amounted to 12 nM and the inhibition at 1 µM was determined as 87%.

On to `CCOC(=O)c1cn(-c2ccc3c(c2)ncn3-c2cc(-c3ccc(F)cc3F)cc(NS(=O)(=O)C3CC3)n2)nn1` [Example 39, Ethyl 1-(1-(6-(cyclopropanesulfonamido)-4-(2,4-difluorophenyl)pyridin-2-yl)-1H-benzo[d]imidazol-5-yl)-1H-1,2,3-triazole-4-carboxylate], for which the IC50 amounted to 294 nM and the inhibition at 1 µM is 81%.

`Cn1cc(-c2ccc3c(c2)ncn3-c2cc(-c3ccc(F)cc3OC(F)F)cc(NS(=O)(=O)C3CC3)n2)cn1` [Example 40, N-(4-(2-(difluoromethoxy)-4-fluorophenyl)-6-(5-(1-methyl-1H-pyrazol-4-yl)-1H-benzo[d]imidazol-1-yl)pyridin-2-yl)cyclopropanesulfonamide]: the IC50 was 293 nM and testing at 1 µM gave an inhibition of 76%.

In the case of `Cn1cc(-c2ccc3c(c2)ncn3-c2cc(-c3ccc(F)cc3F)nc(NS(=O)(=O)C3CC3)n2)cn1` [Example 41, N-(4-(2,4-difluorophenyl)-6-(5-(1-methyl-1H-pyrazol-4-yl)-1H-benzo[d]-imidazol-1-yl)pyrimidin-2-yl)cyclopropanesulfonamide], the IC50 turned out to be 32.7 nM and the inhibition at 1 µM amounted to 93%.

For the molecule `Cn1cc(-c2ccc3c(c2)ncn3-c2cc(NS(=O)(=O)C3CC3)nc(-c3ccc(F)cc3F)c2)cn1` [Example 43, N-(6-(2,4-difluorophenyl)-4-(5-(1-methyl-1H-pyrazol-4-yl)-1H-benzo[d]-imidazol-1-yl)pyridin-2-yl)cyclopropanesulfonamide], the IC50 worked out at 43.4 nM and testing at 1 µM gave an inhibition of 94%.
